Calls of active or inactive are those of the source. The rule behind the calls is not given here.
Assays:
Candida albicans = test: Antimicrobial activity against Candida albicans at 1 ug/mL; format: functional, organism-based
Pichia kudriavzevii = test: Antimicrobial activity against Candida krusei at 25 ug/mL; format: functional, organism-based
Candida parapsilosis = test: Antimicrobial activity against Candida parapsilosis at 25 ug/mL; format: functional, organism-based
Aedes aegypti [1] = test: Mosquitocidal activity against Aedes aegypti fourth instar larvae assessed as mortality at 10 ug/mL after 48 hrs; format: functional
Aedes aegypti [2] = test: Mosquitocidal activity against Aedes aegypti fourth instar larvae; format: functional
Aedes aegypti [3] = test: Mosquitocidal activity against Aedes aegypti fourth instar larvae assessed as mortality at 50 ug/mL after 18 hrs; format: functional, organism-based
[4] = molecular target: T1, DNA topoisomerase 2 (Saccharomyces cerevisiae S288c) (UniProt P06786); test: Inhibition of topoisomerase 2 in Saccharomyces cerevisiae JN394 assessed as inhibition of growth at 50 ug/mL after 72 hrs
T1 sequence (whole entry): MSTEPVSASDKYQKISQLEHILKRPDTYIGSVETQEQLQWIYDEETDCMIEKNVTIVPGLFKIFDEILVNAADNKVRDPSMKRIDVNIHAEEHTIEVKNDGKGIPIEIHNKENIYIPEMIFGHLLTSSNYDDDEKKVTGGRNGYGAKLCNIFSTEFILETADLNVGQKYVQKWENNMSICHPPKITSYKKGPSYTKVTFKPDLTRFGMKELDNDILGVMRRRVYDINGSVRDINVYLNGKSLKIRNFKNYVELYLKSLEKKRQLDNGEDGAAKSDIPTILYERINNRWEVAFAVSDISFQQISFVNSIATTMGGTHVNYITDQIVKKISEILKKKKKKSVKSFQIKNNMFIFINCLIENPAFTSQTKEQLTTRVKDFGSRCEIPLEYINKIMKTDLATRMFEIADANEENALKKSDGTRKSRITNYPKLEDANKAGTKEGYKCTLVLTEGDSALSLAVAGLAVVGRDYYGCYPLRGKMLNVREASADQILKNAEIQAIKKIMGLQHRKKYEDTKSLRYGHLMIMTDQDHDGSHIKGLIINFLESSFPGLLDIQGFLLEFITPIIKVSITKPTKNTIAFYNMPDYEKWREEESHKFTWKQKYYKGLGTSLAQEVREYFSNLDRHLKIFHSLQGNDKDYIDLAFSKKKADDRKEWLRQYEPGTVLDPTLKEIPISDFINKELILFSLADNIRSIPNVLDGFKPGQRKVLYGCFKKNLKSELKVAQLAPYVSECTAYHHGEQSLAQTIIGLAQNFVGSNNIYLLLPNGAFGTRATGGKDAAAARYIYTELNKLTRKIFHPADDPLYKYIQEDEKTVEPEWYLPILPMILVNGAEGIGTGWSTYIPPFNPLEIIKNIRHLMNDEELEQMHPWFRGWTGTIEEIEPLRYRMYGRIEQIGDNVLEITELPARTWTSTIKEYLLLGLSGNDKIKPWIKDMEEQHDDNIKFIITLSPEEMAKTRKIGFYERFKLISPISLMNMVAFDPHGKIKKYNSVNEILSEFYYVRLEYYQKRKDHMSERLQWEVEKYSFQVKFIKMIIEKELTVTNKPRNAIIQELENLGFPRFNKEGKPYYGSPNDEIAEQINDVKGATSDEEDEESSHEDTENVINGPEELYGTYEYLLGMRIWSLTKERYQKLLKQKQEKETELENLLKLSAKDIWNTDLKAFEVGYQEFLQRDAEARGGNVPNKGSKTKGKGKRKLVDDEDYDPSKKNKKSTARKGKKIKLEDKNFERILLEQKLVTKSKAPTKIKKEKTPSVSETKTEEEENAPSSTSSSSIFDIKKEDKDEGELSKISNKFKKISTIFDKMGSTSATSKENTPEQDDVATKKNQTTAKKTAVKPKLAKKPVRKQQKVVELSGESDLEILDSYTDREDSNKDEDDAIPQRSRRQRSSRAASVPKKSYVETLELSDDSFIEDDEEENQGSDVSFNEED

[5] = molecular target: T2, DNA topoisomerase 1 (Saccharomyces cerevisiae S288c) (UniProt P04786); test: Inhibition of topoisomerase 1 in Saccharomyces cerevisiae JN394t-1 assessed as inhibition of growth at 50 ug/mL after 72 hrs
T2 sequence (whole entry): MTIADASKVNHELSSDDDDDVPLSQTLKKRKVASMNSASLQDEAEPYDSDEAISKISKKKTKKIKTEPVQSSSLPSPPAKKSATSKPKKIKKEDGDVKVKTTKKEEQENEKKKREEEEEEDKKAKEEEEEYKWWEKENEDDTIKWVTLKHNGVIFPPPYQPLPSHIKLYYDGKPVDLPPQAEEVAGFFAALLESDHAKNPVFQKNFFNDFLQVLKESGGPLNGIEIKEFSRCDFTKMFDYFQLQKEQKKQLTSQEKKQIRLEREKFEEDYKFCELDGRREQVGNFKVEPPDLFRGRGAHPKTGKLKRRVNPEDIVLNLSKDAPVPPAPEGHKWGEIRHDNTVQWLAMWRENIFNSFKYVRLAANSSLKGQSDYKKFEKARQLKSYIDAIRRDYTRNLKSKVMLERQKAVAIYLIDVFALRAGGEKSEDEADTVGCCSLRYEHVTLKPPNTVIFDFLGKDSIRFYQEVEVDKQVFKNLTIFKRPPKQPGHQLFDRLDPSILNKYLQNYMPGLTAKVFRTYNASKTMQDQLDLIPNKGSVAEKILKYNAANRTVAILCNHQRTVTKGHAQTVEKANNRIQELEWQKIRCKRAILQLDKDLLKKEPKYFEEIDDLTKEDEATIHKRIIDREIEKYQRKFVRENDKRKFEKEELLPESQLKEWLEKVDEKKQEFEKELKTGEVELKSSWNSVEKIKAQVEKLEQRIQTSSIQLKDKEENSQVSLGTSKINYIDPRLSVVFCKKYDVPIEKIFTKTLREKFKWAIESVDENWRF

[6] = molecular target: T1, DNA topoisomerase 2 (Saccharomyces cerevisiae S288c); test: Inhibition of topoisomerase 2 in Saccharomyces cerevisiae JN394t-1 assessed as inhibition of growth at 50 ug/mL after 72 hrs
[7] = molecular target: T2, DNA topoisomerase 1 (Saccharomyces cerevisiae S288c); test: Inhibition of topoisomerase 1 in Saccharomyces cerevisiae JN394t2-5 assessed as inhibition of growth at 50 ug/mL after 72 hrs
[8] = molecular target: T2, DNA topoisomerase 1 (Saccharomyces cerevisiae S288c); test: Inhibition of topoisomerase 1 in Saccharomyces cerevisiae JN394 assessed as inhibition of growth at 50 ug/mL after 72 hrs
[9] = molecular target: T1, DNA topoisomerase 2 (Saccharomyces cerevisiae S288c); test: Inhibition of topoisomerase 2 in Saccharomyces cerevisiae JN394t2-5 assessed as inhibition of growth at 50 ug/mL after 72 hrs
[10] = molecular target: T1, DNA topoisomerase 2 (Saccharomyces cerevisiae S288c); test: Inhibition of topoisomerase 2 in Saccharomyces cerevisiae JN394 assessed as inhibition of growth at 25 ug/mL after 72 hrs
[11] = molecular target: T2, DNA topoisomerase 1 (Saccharomyces cerevisiae S288c); test: Inhibition of topoisomerase 1 in Saccharomyces cerevisiae JN394t-1 assessed as inhibition of growth at 25 ug/mL after 72 hrs
[12] = molecular target: T1, DNA topoisomerase 2 (Saccharomyces cerevisiae S288c); test: Inhibition of topoisomerase 2 in Saccharomyces cerevisiae JN394t-1 assessed as inhibition of growth at 25 ug/mL after 72 hrs
[13] = molecular target: T2, DNA topoisomerase 1 (Saccharomyces cerevisiae S288c); test: Inhibition of topoisomerase 1 in Saccharomyces cerevisiae JN394t2-5 assessed as inhibition of growth at 25 ug/mL after 72 hrs
[14] = molecular target: T2, DNA topoisomerase 1 (Saccharomyces cerevisiae S288c); test: Inhibition of topoisomerase 1 in Saccharomyces cerevisiae JN394 assessed as inhibition of growth at 25 ug/mL after 72 hrs
[15] = molecular target: T1, DNA topoisomerase 2 (Saccharomyces cerevisiae S288c); test: Inhibition of topoisomerase 2 in Saccharomyces cerevisiae JN394t2-5 assessed as inhibition of growth at 25 ug/mL after 72 hrs

| Activity [4] | Activity [5] | Activity [6] | Activity [7] | Activity [8] | Activity [9] | SMILES | also measured |
| --- | --- | --- | --- | --- | --- | --- | --- |
|  |  |  |  |  |  | C=C1CC[C@H]2C(C)(C)CCC[C@]2(C)[C@H]1C/C=C(\C=O)CC=O [LABDADIENEDIAL] | Activity (Candida albicans): Active; Activity (Pichia kudriavzevii): Active; Activity (Candida parapsilosis): Active; Activity (Aedes aegypti [1]): 100% |
|  |  |  |  |  |  | CC(C)=CC(=O)CC(C)c1ccc(C)cc1 (centres undefined) | LD100 (Aedes aegypti [2]): 50 µg/mL; Activity (Aedes aegypti [3]): Active |
| Active | Active | Active | Active | Active | Active | COc1cc(/C=C/C(O)=C/C(=O)/C=C/c2ccc(O)cc2)ccc1O |  |
| Active | Active | Active | Active | Active | Active | O=C(/C=C/c1ccc(O)cc1)CC(=O)/C=C/c1ccc(O)cc1 | Activity [10]: Active; Activity [11]: Active; Activity [12]: Active; Activity [13]: Active; Activity [14]: Active; Activity [15]: Active |
